Laboratory results reported in PMC10923520 (Science Advances, 2024).

Test system: A549 (EGFR^WT) cells
Assay: MTT cell viability inhibition assay, A549 cells
Format: cell-based
Conditions: Homo sapiens, A549, 72 h, read-out: IC50 (μM) A549 (EGFR^WT)

- IC50: 0.6864 ± 0.0045 µM
SMILES: C=CC(=O)Nc1cc(Nc2nccc(-c3cn(C)c4ccccc34)n2)c(OC)cc1N(C)CCN(C)C [Osimertinib, osimertinib]
